This passage reports pest or weed control, plant injury and Corn plant response rating (crop injury, 0 = no effect, 100 = complete kill) results from patent US12077503B2, “Substituted cyclic amides and their use as herbicides” (FMC CORPORATION, priority 2015, dated 2024).

Like-named read-outs stand apart in the source and are kept apart here.

What all share (type): in vivo
The test system of test [1] is Galium (catchweed bedstraw, Galium aparine). In words: Test A postemergence. The conditions noted are these: Galium, post-emergence, 240 h, postemergence, approx. 10 d; for pest or weed control at 125 g/ha: 125 g ai/ha, visual injury on 0 to 100 scale (0 no effect, 100 complete control), read-out: Galium plant response rating; for pest or weed control at 500 g/ha: 500 g ai/ha, visual injury, 0 to 100 scale (0 no effect, 100 complete control), read-out: Plant response rating, Galium. An outline of the steps: (§1)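 Each rating is a visual injury score from 0 to 100 given about 10 d after treatment, judged against untreated controls kept alongside in the greenhouse. In loam soil–sand blend, seeds got a preemergence directed soil spray, while postemergence plants were 2 to 10 cm tall at spraying.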

Test [2] relates to blackgrass (Alopecurus myosuroides). Kind of test: Test A postemergence. The conditions noted are these: Alopecurus myosuroides, post-emergence, 240 h; for pest or weed control at 125 g/ha: 125 g ai/ha; for pest or weed control at 500 g/ha: 500 g ai/ha, visual injury, 0 to 100 scale (0 no effect, 100 complete control). An outline of the steps:
as §1

Test [3] deals with ragweed (common ragweed, Ambrosia elatior). Kind of test: Test A postemergence. To be noted: Ambrosia artemisiifolia, post-emergence, 240 h, postemergence, approx. 10 d; for pest or weed control at 125 g/ha: 125 g ai/ha, visual injury on 0 to 100 scale (0 no effect, 100 complete control), read-out: Ragweed plant response rating. The method in brief: as §1
Another test relates to Kochia (Kochia scoparia). In words: Test A postemergence. To be noted: Bassia scoparia, post-emergence, 240 h, postemergence, approx. 10 d; for pest or weed control at 125 g/ha: 125 g ai/ha, visual injury on 0 to 100 scale (0 no effect, 100 complete control), read-out: Kochia plant response rating; for pest or weed control at 500 g/ha: 500 g ai/ha, visual injury, 0 to 100 scale (0 no effect, 100 complete control), read-out: Plant response rating, Kochia. The method in brief:
as §1

Test [4] has as its system giant foxtail (Setaria faberii). Kind of test: Test A postemergence. The conditions noted are these: Setaria faberi, post-emergence, 240 h, postemergence, approx. 10 d; for pest or weed control at 125 g/ha: 125 g ai/ha, visual injury on 0 to 100 scale (0 no effect, 100 complete control), read-out: Foxtail, Giant plant response rating; for pest or weed control at 500 g/ha: 500 g ai/ha, visual injury, 0 to 100 scale (0 no effect, 100 complete control), read-out: Plant response rating, Foxtail, Giant. The method in brief: as §1

The test system of test [5] is pigweed (Amaranthus retroflexus). Kind of test: Test A postemergence. To be noted: Amaranthus retroflexus, post-emergence, 240 h, postemergence, approx. 10 d; for pest or weed control at 125 g/ha: 125 g ai/ha, visual injury on 0 to 100 scale (0 no effect, 100 complete control), read-out: Pigweed plant response rating. The method in brief:
as §1

The test system of test [6] is wheat (Triticum aestivum). In words: Test A postemergence. The conditions noted are these: Triticum aestivum, post-emergence, 240 h, postemergence, approx. 10 d; for plant injury at 125 g/ha: 125 g ai/ha, visual injury on 0 to 100 scale (0 no effect, 100 complete control), read-out: Wheat plant response rating. The method in brief: as §1
The test system of test [7] is barnyardgrass (Echinochloa crus-galli). Kind of test: Test A postemergence. To be noted: Echinochloa crus-galli, post-emergence, 240 h; for pest or weed control at 125 g/ha: 125 g ai/ha; for pest or weed control at 500 g/ha: 500 g ai/ha, visual injury, 0 to 100 scale (0 no effect, 100 complete control). An outline of the steps: as §1
The test system of a further test is corn (Zea mays). Kind of test: Test A postemergence. The conditions noted are these: Zea mays, post-emergence, 240 h; for Corn plant response rating (crop injury, 0 = no effect, 100 = complete kill) at 500 g/ha: 500 g ai/ha, visual injury, 0 to 100 scale (0 no effect, 100 complete control). The method in brief:
as §1

Test [8] deals with ryegrass, Italian (Italian ryegrass, Lolium multiflorum). In words: Test A postemergence. To be noted: Lolium multiflorum, post-emergence, 240 h, postemergence, approx. 10 d; for pest or weed control at 125 g/ha: 125 g ai/ha, visual injury on 0 to 100 scale (0 no effect, 100 complete control), read-out: Ryegrass, Italian plant response rating. The method in brief:
as §1

Test [9] has as its system barnyardgrass (Echinochloa crus-galli). In words: Test B flooded paddy test. The conditions noted are these: Echinochloa crus-galli, 250 g ai/ha, Flood; 0 to 100 scale where 0 is no effect and 100 is complete control; read-out: Barnyardgrass plant response rating. An outline of the steps: (§2)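 Percent control, visually estimated after 13–15 d in the greenhouse on a 0–100 basis, compares treated pots with untreated ones; compound was put into paddy water 3 cm above the soil when plants had two leaves.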

Test [10] has as its system ducksalad (Heteranthera limosa). Kind of test: Test B flooded paddy test. The conditions noted are these: Heteranthera limosa, 250 g ai/ha, Flood; 0 to 100 scale where 0 is no effect and 100 is complete control; read-out: Ducksalad plant response rating. The method in brief: as §2
The next test deals with rice (Oryra sativa). In words: Test B flooded paddy test. The conditions noted are these: Oryza sativa, 250 g ai/ha, Flood; 0 to 100 scale where 0 is no effect and 100 is complete control; read-out: Rice plant response rating. An outline of the steps: as §2
Test [11] has as its system sedge, umbrella (small-flower umbrella sedge, Cyperus difformis). In words: Test B flooded paddy test. To be noted: Cyperus difformis, 250 g ai/ha, Flood; 0 to 100 scale where 0 is no effect and 100 is complete control; read-out: Sedge, Umbrella plant response rating. An outline of the steps:
as §2

In test [12] the test system is pigweed (Amaranthus retroflexus). In words: Test A preemergence. To be noted: Amaranthus retroflexus, pre-emergence, 240 h; for pest or weed control at 125 g/ha: 125 g ai/ha, Preemergence, visual injury rating after approximately 10 d, read-out: Pigweed plant response rating (0 to 100 scale, 0 is no effect, 100 is complete control); for pest or weed control at 500 g/ha: 500 g ai/ha, preemergence, visual injury rating about 10 d after treatment, 0 to 100 scale (0 no effect, 100 complete control), read-out: Pigweed plant response rating.

Setting [13] is: postemergence, approx. 10 d, read-out: Plant response rating, Blackgrass.
Where [14] appears, read: postemergence, approx. 10 d, read-out: Plant response rating, Barnyardgrass.

For `Cc1ccc([C@H]2CNC(=O)[C@@H]2C(=O)Nc2ccccc2S(C)(=O)=O)cc1C` [Compound 1037], the pest or weed control at 125 g/ha in test [1] was 40%; in test [2] (Postemergence, visual injury after approximately 10 d, 0 to 100 scale where 0 is no effect and 100 is complete control, read-out: Plant response rating, Blackgrass), 0%; in [3], 20%; in the test on Kochia (Kochia scoparia) it was 0%; in [4], 0%; in test [5] it was 0%. The pest or weed control at 125 g/ha was found to be 70% in test [7] (Postemergence, visual injury after approximately 10 d, 0 to 100 scale where 0 is no effect and 100 is complete control, read-out: Plant response rating, Barnyardgrass); 0% in test [8]; 0% in test [12]. The pest or weed control at 500 g/ha in test [1] is 60%; in [2] (setting [13]) it was 20%; in [3] (500 g ai/ha, visual injury, 0 to 100 scale (0 no effect, 100 complete control), read-out: Plant response rating, Ragweed), 30%; with Kochia (Kochia scoparia), 20%; in test [4], 30%; in test [5] (500 g ai/ha, visual injury, 0 to 100 scale (0 no effect, 100 complete control), read-out: Plant response rating, Pigweed), 0%. The pest or weed control at 500 g/ha in test [7] (setting [14]) is 90%; in [8] (500 g ai/ha, visual injury, 0 to 100 scale (0 no effect, 100 complete control), read-out: Plant response rating, Ryegrass, Italian), 50%; in test [12], 20%. In addition, the plant injury at 125 g/ha in test [6] was 0%. For the same molecule, the plant injury at 500 g/ha in [6] (500 g ai/ha, visual injury, 0 to 100 scale (0 no effect, 100 complete control), read-out: Plant response rating, Wheat) amounted to 30%. For the same molecule, in the test with corn (Zea mays) (125 g ai/ha, Postemergence, visual injury after approximately 10 d, 0 to 100 scale where 0 is no effect and 100 is complete control), the Corn plant response rating (crop injury, 0 = no effect, 100 = complete kill) at 125 g/ha was determined as 0%. Moreover, the Corn plant response rating (crop injury, 0 = no effect, 100 = complete kill) at 500 g/ha in the test with corn (Zea mays) (postemergence, approx. 10 d) was found to be 30%. Besides, the pest or weed control at 250 g/ha in test [9] amounted to 25%; in [10], 100%; with rice (Oryra sativa), 0%; in test [11], 0%.
With `O=C1NCC(c2ccccc2OC(F)(F)C(F)F)C1C(=O)Nc1cccc(F)c1F` (stereo not drawn) [Compound 1054], the pest or weed control at 125 g/ha came to 0% in test [1]; 0% in [2] (postemergence, visual injury on 0 to 100 scale (0 no effect, 100 complete control), approx. 10 d, read-out: Blackgrass plant response rating); 0% in test [3]; 0% in the test on Kochia (Kochia scoparia); 0% in test [4]; 0% in [5]. In addition, the pest or weed control at 125 g/ha in test [7] (postemergence, visual injury on 0 to 100 scale (0 no effect, 100 complete control), approx. 10 d, read-out: Barnyardgrass plant response rating) was found to be 0%; in test [8] it was 0%; in test [12], 0%. Also, the pest or weed control at 500 g/ha (in test [1]; in test [2] (setting [13]); in the test with Kochia (Kochia scoparia); in test [4]; in test [7] (setting [14]); in [12]) was 0% in each case. For the same molecule, the plant injury at 125 g/ha was 0% in test [6] and 0% with corn (Zea mays) (125 g ai/ha, postemergence, visual injury on 0 to 100 scale (0 no effect, 100 complete control), approx. 10 d, read-out: Corn plant response rating). Besides, in the test on corn (Zea mays) (postemergence, approx. 10 d), the Corn plant response rating (crop injury, 0 = no effect, 100 = complete kill) at 500 g/ha stood at 0%. For the same molecule, the pest or weed control at 250 g/ha (in test [9]; in test [10]; in the test with rice (Oryra sativa); in test [11]) was 0% in each case.
